The source of these data is patent publication US8710065B2, “Tricyclic inhibitors of kinases” (AbbVie Inc., priority 2011, dated 2014).

Where only a bound is given, the exact number is not on record here.

T1 sequence (P30291 whole entry): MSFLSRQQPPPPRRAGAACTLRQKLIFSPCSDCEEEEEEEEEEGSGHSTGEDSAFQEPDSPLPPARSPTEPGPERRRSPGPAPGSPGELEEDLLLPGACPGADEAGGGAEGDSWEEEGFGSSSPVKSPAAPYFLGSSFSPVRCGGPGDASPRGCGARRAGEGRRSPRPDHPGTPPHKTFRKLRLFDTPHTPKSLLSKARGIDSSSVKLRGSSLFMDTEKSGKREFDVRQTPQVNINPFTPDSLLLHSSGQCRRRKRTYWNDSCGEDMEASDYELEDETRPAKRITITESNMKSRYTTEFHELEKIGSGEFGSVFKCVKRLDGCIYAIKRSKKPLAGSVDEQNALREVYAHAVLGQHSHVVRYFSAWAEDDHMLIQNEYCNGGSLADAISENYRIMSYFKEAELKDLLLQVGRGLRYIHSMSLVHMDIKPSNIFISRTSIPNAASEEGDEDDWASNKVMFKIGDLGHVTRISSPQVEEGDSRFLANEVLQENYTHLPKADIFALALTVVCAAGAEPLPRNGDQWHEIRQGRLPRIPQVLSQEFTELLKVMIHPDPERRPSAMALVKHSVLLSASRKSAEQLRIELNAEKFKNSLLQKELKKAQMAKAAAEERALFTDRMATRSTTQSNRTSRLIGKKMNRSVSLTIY

This assay concerns the target T1, GST-tagged-Wee1 kinase (Homo sapiens, UniProt P30291).
T1 construct: purchased Carnabio (Carna Biosciences) 05-177
Put plainly: Wee1 time-resolved fluorescence equilibrium binding assay (displacement of Oregon Green-labeled ATP-competitive kinase probe). The settings on record: read-out: Wee-1 inhibition (Ki). The procedure, abridged:
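Ki values derive from competitive displacement, under equilibrium, of a fast-reversible ATP-site Oregon Green kinase probe from GST-tagged Wee1, detected by time-resolved fluorescence.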
For orientation: Ki means a measure of affinity in units of concentration, obtained from inhibition or displacement. As for `CN1Cc2cc(Nc3ncc4c(=O)n(-c5ccccc5Cl)c5nccn5c4n3)ccc2C1(C)C` [Example 146, 6-(2-chlorophenyl)-2-[(1,1,2-trimethyl-2,3-dihydro-1H-isoindol-5-yl)amino]imidazo[1,2-a]pyrimido[5,4-e]pyrimidin-5(6H)-one], the Ki was below 0.01 µM.
`CN1C(C)(C)c2ccc(Nc3ncc4c(=O)n(-c5ccccc5Cl)c5nccn5c4n3)cc2C1(C)C` [Example 147, 6-(2-chlorophenyl)-2-[(1,1,2,3,3-pentamethyl-2,3-dihydro-1H-isoindol-5-yl)amino]imidazo[1,2-a]pyrimido[5,4-e]pyrimidin-5(6H)-one]: the inhibition constant (Ki) is below 0.01 µM.
With `COc1cc(Nc2ncc3c(=O)n(-c4c(Cl)cccc4Cl)c4nccn4c3n2)ccc1N1CCN(C)CC1` [Example 148, 6-(2,6-dichlorophenyl)-2-{[3-methoxy-4-(4-methylpiperazin-1-yl)phenyl]amino}imidazo[1,2-a]pyrimido[5,4-e]pyrimidin-5(6H)-one], the Ki is below 0.01 µM.
As to `CCN(CC)CCCOc1ccc(Nc2ncc3c(=O)n(-c4c(Cl)cccc4Cl)c4nccn4c3n2)cc1F` [Example 149, 6-(2,6-dichlorophenyl)-2-({4-[3-(diethylamino)propoxy]-3-fluorophenyl}amino)imidazo[1,2-a]pyrimido[5,4-e]pyrimidin-5(6H)-one], the Ki is below 0.01 µM.
In the case of `CN1CCc2cc(Nc3ncc4c(=O)n(-c5c(Cl)cccc5Cl)c5nccn5c4n3)ccc2C1(C)C` [Example 150, 6-(2,6-dichlorophenyl)-2-[(1,1,2-trimethyl-1,2,3,4-tetrahydroisoquinolin-6-yl)amino]imidazo[1,2-a]pyrimido[5,4-e]pyrimidin-5(6H)-one], the Ki is below 0.01 µM.
As for `O=c1c2cnc(Nc3ccc(N4C[C@@H]5C[C@H]4CN5)cc3)nc2n2ccnc2n1-c1c(Cl)cccc1Cl` [Example 151, 2-({4-[(1S,45)-2,5-diazabicyclo[2.2.1]hept-2-yl]phenyl}amino)-6-(2,6-dichlorophenyl)imidazo[1,2-a]pyrimido[5,4-e]pyrimidin-5(6H)-one], the inhibition constant (Ki) is below 0.01 µM.
As for `CN1Cc2cc(Nc3ncc4c(=O)n(-c5c(Cl)cccc5Cl)c5nccn5c4n3)ccc2C(C)(C)C1` [Example 152, 6-(2,6-dichlorophenyl)-2-[(2,4,4-trimethyl-1,2,3,4-tetrahydroisoquinolin-7-yl)amino]imidazo[1,2-a]pyrimido[5,4-e]pyrimidin-5(6H)-one], the Ki was below 0.01 µM.
For `O=c1c2cnc(Nc3ccc(N4CCC(F)(F)CC4)cc3)nc2n2ccnc2n1-c1c(Cl)cccc1Cl` [Example 153, 6-(2,6-dichlorophenyl)-2-{[4-(4,4-difluoropiperidin-1-yl)phenyl]amino}imidazo[1,2-a]pyrimido[5,4-e]pyrimidin-5(6H)-one], the inhibition constant Ki is below 0.01 µM.
As for `O=c1c2cnc(Nc3ccc(N4CCCC(F)(F)C4)cc3)nc2n2ccnc2n1-c1c(Cl)cccc1Cl` [Example 154, 6-(2,6-dichlorophenyl)-2-{[4-(3,3-difluoropiperidin-1-yl)phenyl]amino}imidazo[1,2-a]pyrimido[5,4-e]pyrimidin-5(6H)-one], the inhibition constant Ki is below 0.01 µM.
Regarding `CC(C)N1CCN(c2ccc(Nc3ncc4c(=O)n(-c5c(Cl)cccc5Cl)c5nccn5c4n3)cc2F)CC1` [Example 155, 6-(2,6-dichlorophenyl)-2-({3-fluoro-4-[4-(propan-2-yl)piperazin-1-yl]phenyl}amino)imidazo[1,2-a]pyrimido[5,4-e]pyrimidin-5(6H)-one], the inhibition constant Ki was below 0.01 µM.
`O=c1c2cnc(Nc3ccc(N4CCNCC4)c(C(F)(F)F)c3)nc2n2ccnc2n1-c1c(Cl)cccc1Cl` [Example 156, 6-(2,6-dichlorophenyl)-2-{[4-(piperazin-1-yl)-3-(trifluoromethyl)phenyl]amino}imidazo[1,2-a]pyrimido[5,4-e]pyrimidin-5(6H)-one]: the inhibition constant (Ki) was below 0.01 µM.
Regarding `CC(C)c1cc(Nc2ncc3c(=O)n(-c4ccccc4Cl)c4nccn4c3n2)ccc1N1CCN(C)CC1` [Example 157, 6-(2-chlorophenyl)-2-{[4-(4-methylpiperazin-1-yl)-3-(propan-2-yl)phenyl]amino}imidazo[1,2-a]pyrimido[5,4-e]pyrimidin-5(6H)-one], the inhibitory constant (Ki) is below 0.01 µM.
For `CC(=O)N1CCN(c2ccc(Nc3ncc4c(=O)n(-c5c(F)cccc5Cl)c5nccn5c4n3)cc2)CC1` [Example 158, 2-{[4-(4-acetylpiperazin-1-yl)phenyl]amino}-6-(2-chloro-6-fluorophenyl)imidazo[1,2-a]pyrimido[5,4-e]pyrimidin-5(6H)-one], the inhibitory constant (Ki) was below 0.01 µM.
Consider `CC1(C)CNCc2cc(Nc3ncc4c(=O)n(-c5c(F)cccc5Cl)c5nccn5c4n3)ccc21` [Example 159, 6-(2-chloro-6-fluorophenyl)-2-[(4,4-dimethyl-1,2,3,4-tetrahydroisoquinolin-7-yl)amino]imidazo[1,2-a]pyrimido[5,4-e]pyrimidin-5(6H)-one], for which the inhibition constant (Ki) lay within 0.01 to 0.1 µM.
With `O=c1c2cnc(Nc3ccc4c(c3)CNCC43CC3)nc2n2ccnc2n1-c1c(Cl)cc(F)cc1Cl` [Example 160, 6-(2,6-dichloro-4-fluorophenyl)-2-(2′,3′-dihydro-1′H-spiro[cyclopropane-1,4′-isoquinolin]-7′-ylamino)imidazo[1,2-a]pyrimido[5,4-e]pyrimidin-5(6H)-one], the Ki was below 0.01 µM.
Next, `CCN1Cc2cc(Nc3ncc4c(=O)n(-c5ccccc5Cl)c5nccn5c4n3)ccc2C(C)(C)C1` [Example 161, 6-(2-chlorophenyl)-2-[(2-ethyl-4,4-dimethyl-1,2,3,4-tetrahydroisoquinolin-7-yl)amino]imidazo[1,2-a]pyrimido[5,4-e]pyrimidin-5(6H)-one]: below 0.01 µM; `CC1(C)CN(CC(F)(F)F)Cc2cc(Nc3ncc4c(=O)n(-c5ccccc5Cl)c5nccn5c4n3)ccc21` [Example 162, 6-(2-chlorophenyl)-2-{[4,4-dimethyl-2-(2,2,2-trifluoroethyl)-1,2,3,4-tetrahydroisoquinolin-7-yl]amino}imidazo[1,2-a]pyrimido[5,4-e]pyrimidin-5(6H)-one]: 0.01 to 0.1 µM.
For `CC1(C)CN(Cc2ccc(-n3ccnc3)cc2)Cc2cc(Nc3ncc4c(=O)n(-c5ccccc5Cl)c5nccn5c4n3)ccc21` [Example 163, 6-(2-chlorophenyl)-2-({2-[4-(1H-imidazol-1-yl)benzyl]-4,4-dimethyl-1,2,3,4-tetrahydroisoquinolin-7-yl}amino)imidazo[1,2-a]pyrimido[5,4-e]pyrimidin-5(6H)-one], the Ki was below 0.01 µM.
With `CC1(C)CN(CC2CCN(Cc3ccccc3)CC2)Cc2cc(Nc3ncc4c(=O)n(-c5ccccc5Cl)c5nccn5c4n3)ccc21` [Example 164, 2-({2-[(1-benzylpiperidin-4-yl)methyl]-4,4-dimethyl-1,2,3,4-tetrahydroisoquinolin-7-yl}amino)-6-(2-chlorophenyl)imidazo[1,2-a]pyrimido[5,4-e]pyrimidin-5(6H)-one], the inhibition constant Ki is below 0.01 µM.
Turning to `CC(=O)N1Cc2cc(Nc3ncc4c(=O)n(-c5c(Cl)cc(F)cc5Cl)c5nccn5c4n3)ccc2C2(CC2)C1` [Example 165, 2-[(2′-acetyl-2′,3′-dihydro-1′H-spiro[cyclopropane-1,4′-isoquinolin]-7′-yl)amino]-6-(2,6-dichloro-4-fluorophenyl)imidazo[1,2-a]pyrimido[5,4-e]pyrimidin-5(6H)-one], the Ki was below 0.01 µM.
With `O=c1c2cnc(Nc3ccc(N4CCC(O)CC4)cc3)nc2n2ccnc2n1-c1c(Cl)cccc1Cl` [Example 166, 6-(2,6-dichlorophenyl)-2-{[4-(4-hydroxypiperidin-1-yl)phenyl]amino}imidazo[1,2-a]pyrimido[5,4-e]pyrimidin-5(6H)-one] the figure was below 0.01 µM; with `O=c1c2cnc(Nc3ccc(C4CCCCC4)cc3)nc2n2ccnc2n1-c1c(Cl)cccc1Cl` [Example 167, 2-[(4-cyclohexylphenyl)amino]-6-(2,6-dichlorophenyl)imidazo[1,2-a]pyrimido[5,4-e]pyrimidin-5(6H)-one], 0.01 to 0.1 µM; with `O=c1c2cnc(Nc3ccc(C4CCNC4)cc3)nc2n2ccnc2n1-c1c(Cl)cccc1Cl` (stereo not shown) [Example 168, 6-(2,6-dichlorophenyl)-2-{[4-(pyrrolidin-3-yl)phenyl]amino}imidazo[1,2-a]pyrimido[5,4-e]pyrimidin-5(6H)-one], below 0.01 µM.
Consider `O=c1c2cnc(Nc3ccc(N4CCOCC4)cc3)nc2n2ccnc2n1-c1c(Cl)cccc1Cl` [Example 169, 6-(2,6-dichlorophenyl)-2-{[4-(morpholin-4-yl)phenyl]amino}imidazo[1,2-a]pyrimido[5,4-e]pyrimidin-5(6H)-one], for which the Ki was below 0.01 µM.
On to `CC1(C)CN(CC(F)(F)F)Cc2cc(Nc3ncc4c(=O)n(-c5c(Cl)cccc5Cl)c5nccn5c4n3)ccc21` [Example 170, 6-(2,6-dichlorophenyl)-2-{[4,4-dimethyl-2-(2,2,2-trifluoroethyl)-1,2,3,4-tetrahydroisoquinolin-7-yl]amino}imidazo[1,2-a]pyrimido[5,4-e]pyrimidin-5(6H)-one], for which the inhibition constant Ki is 0.01 to 0.1 µM.
As for `O=C(C1CC1)N1Cc2cc(Nc3ncc4c(=O)n(-c5c(Cl)cc(F)cc5Cl)c5nccn5c4n3)ccc2C2(CC2)C1` [Example 171, 2-{[2′-(cyclopropylcarbonyl)-2′,3′-dihydro-1′H-spiro[cyclopropane-1,4′-isoquinolin]-7′-yl]amino}-6-(2,6-dichloro-4-fluorophenyl)imidazo[1,2-a]pyrimido[5,4-e]pyrimidin-5(6H)-one], the Ki is below 0.01 µM.
On to `CS(=O)(=O)N1Cc2cc(Nc3ncc4c(=O)n(-c5c(Cl)cc(F)cc5Cl)c5nccn5c4n3)ccc2C2(CC2)C1` [Example 172, 6-(2,6-dichloro-4-fluorophenyl)-2-{[2′-(methylsulfonyl)-2′,3′-dihydro-1′H-spiro[cyclopropane-1,4′-isoquinolin]-7′-yl]amino}imidazo[1,2-a]pyrimido[5,4-e]pyrimidin-5(6H)-one], for which the Ki is below 0.01 µM.
Turning to `O=c1c2cnc(Nc3ccc(N4CCNCC4)nc3)nc2n2ccnc2n1-c1c(Cl)cc(F)cc1Cl` [Example 173, 6-(2,6-dichloro-4-fluorophenyl)-2-{[6-(piperazin-1-yl)pyridin-3-yl]amino}imidazo[1,2-a]pyrimido[5,4-e]pyrimidin-5(6H)-one], the Ki was below 0.01 µM.
